Where a name gives a salt, the structure may show the parent alone. Read-outs that look alike come from different tables or passages of the source.
Columns and labels:
HSV-1 protease [1] = target: T1, HSV-1 protease (Human herpesvirus 1, UniProt P10210); assay: biochemical
Experimental: For experiments examining anion effects, buffer solutions were prepared with the sodium salt of the anion and the pH was adjusted to 7.5 with concentrated HCl where necessary (i.e., citrate, glutamate, malate). An exception was phosphate, where NaH2 PO4 was prepared in the buffer and the pH adjusted upward with NaOH.
Enzyme activity was measured with the peptide substrates […]-amide (SEQ.ID.NO.:2) and […]-amide (SEQ.ID.NO.:1), using HPLC for the separation of products from substrates as described in Darke et al., 1994, supra. The C-terminal cleavage products of enzymatic hydrolysis are SEKFKMW-amide (SEQ.ID.NO.:3) and […]-amide (SEQ.ID.NO.:4) respectively. Quantitation of the C-terminal cleavage product, containing tryptophan, in the HPLC effluent was with a Hewlett-Packard model 1046A fluorescence detector (excitation at 280 nm, emission at 350 nm). […] Reactions were performed at 37° C. in a pH 7.5 buffer containing 52 mM 4-morpholinoethanesulfonic acid (MES), 52 mM 3-(N-tris(hydroxymethyl)methylamino)-2-hyroxy-propanesulfonic acid (TAPSO) and 100 mM diethanolamine, 1 mM EDTA, 1 mM dithiothreitol, 0.1% bovine serum albumin, and the various additives listed in the Tables. Reactions were initiated by the addition of a stock HSV-1 protease solution (0.625 mg/ml) in the above buffer with no additives to a final concentration of 0.025 mg/ml (0.94 μM) and quenched with the addition of 5% H3 PO4. Activity assays comparing various anion and cosolvents effects were conducted with a substrate concentration of 53 μM. Activity in Tables 1 and 2 is expressed as relative to the case where no additive was present in the reaction mixture.

HSV-1 protease [2] = target: T1, HSV-1 protease; assay: Susceptibility of HSV-1 protease to trypsin proteolysis (SDS-PAGE); type: biochemical, Herpes Simplex Virus type 1; design: Autoprocessing of the precursor to the mature 246 amino acid form of the enzyme; made in house; host or cells: E. coli; settings: trypsin 0.1 mg/ml, 37° C., 60 min; 0.8M citrate
Experimental: HSV-1 protease was incubated for 60 minutes at 37° C. with or without trypsin, either with or without 0.8M sodium citrate present, as described in Example 3. Samples were analyzed with SDS-PAGE (16% gels) and stained with Coomassie brilliant blue. Lanes 1 and 2, no trypsin added; lanes 3 and 4, trypsin added at 0.1 mg/ml. Lanes 1 and 3, no citrate added; lanes 2 and 4, sodium citrate present at 0.8M during incubation. The arrow on the right indicates the position of 27 kDa, undigested HSV-1 protease. Molecular weight markers are in the leftmost lane, with the corresponding molecular weights marked in kDa.
In accordance with this invention, the sensitivity of native HSV-1 protease to trypsin was examined as a function of kosmotrope concentration. Following treatment of the enzyme with trypsin for 60 minutes, SDS-PAGE was performed to qualitatively examine the extent of trypsin digestion of the HSV-1 protease.
Trypsin treatment of the HSV-1 protease (0.15 mg/ml) was performed with 0.1 mg/ml trypsin at 37° C. for 60 min. Trypsin activity s measurements with the fluorogenic substrate BOC-Val-Pro-Arg-7-amino-4-methylcoumarin were performed at 37° C. After trypsin treatment, samples were boiled with SDS gel sample buffer and small volumes of sodium citrate were added to some samples to equalize the extent of band spreading on the gel. […]

[3] = pH 7.5, read-out: Relative activity of HSV-1 protease
[4] = anion (Na+ salt) at ionic strength = 0.8, 37° C., pH 7.5, substrate 53 μM, relative to no additive
[5] = anion (Na+ salt) 0.2M, 37° C., pH 7.5, substrate 53 μM, relative to no additive, 200000 µM
[6] = anion (Na+ salt) 0.8M, 37° C., pH 7.5, substrate 53 μM, relative to no additive, 800000 µM

T1 sequence (P10210 1-247): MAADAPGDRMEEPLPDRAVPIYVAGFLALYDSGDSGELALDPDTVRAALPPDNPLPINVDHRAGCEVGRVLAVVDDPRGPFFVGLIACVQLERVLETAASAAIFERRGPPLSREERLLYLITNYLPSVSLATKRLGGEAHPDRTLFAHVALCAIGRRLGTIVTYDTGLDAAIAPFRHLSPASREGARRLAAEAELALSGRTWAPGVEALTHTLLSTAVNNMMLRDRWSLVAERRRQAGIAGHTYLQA

N.N.O=S(=O)(O)O [(NH4)2 SO4]
effect of anion/salt on HSV-1 protease activity (in words) (HSV-1 protease [1]): slightly less activating

[Br-].[K+] [Br^-, bromide]
Relative activity of HSV-1 protease (HSV-1 protease [1]; pH 7.5, 200000 µM): 0.23
Relative activity of HSV-1 protease (HSV-1 protease [1]; pH 7.5, 800000 µM): 0.07

CC(=O)O [CH3 COO^-]
activity at 200000 µM (HSV-1 protease [1]; [3]): 171%
activity at 800000 µM (HSV-1 protease [1]; [3]): 703%

O=C(O)CC(O)(CC(=O)O)C(=O)O [Citrate, sodium citrate]
susceptibility of HSV-1 protease to trypsin digestion (in words) (HSV-1 protease [2]): loss in susceptibility of HSV-1 protease to trypsin digestion
effect of anion/salt on HSV-1 protease activity (in words) (HSV-1 protease [1]): strong activation
kcat /KM (HSV-1 protease [1]): 4500 M⁻¹ s⁻¹
amount of peptide cleavage product (SEKFKMW-amide) that accumulated in 60 minutes (HSV-1 protease [1]; 0.8M sodium citrate in reaction mixture, HSV-1 protease 40 nM): 100 pmol
amount of peptide cleavage product that accumulated in 1 minute (HSV-1 protease [1]; 0.8M sodium citrate in reaction mixture, enzyme 0.93 μM): 100 pmol
Relative activity of HSV-1 protease (HSV-1 protease [1]; [4]): 4.16
fold induction at 800000 µM (HSV-1 protease [1]; pH 7.5, read-out: enhancement of the observed hydrolytic rate (increase of activity)): 202
fold induction at 800000 µM (HSV-1 protease [1]; pH 7.5, read-out: increase of the protease activity (catalytic efficiency)): 860

[O-][Cl+3]([O-])([O-])O [ClO4^-, perchlorate]
effect of anion/salt on HSV-1 protease activity (in words) (HSV-1 protease [1]): inhibitory
Relative activity of HSV-1 protease (HSV-1 protease [1]; [5]): 0.06
Relative activity of HSV-1 protease (HSV-1 protease [1]; [6]): 0.00

Cl [Cl^-, Chloride]
effect of anion/salt on HSV-1 protease activity (in words) (HSV-1 protease [1]): little effect
Relative activity of HSV-1 protease (HSV-1 protease [1]; [5]): 0.96
Relative activity of HSV-1 protease (HSV-1 protease [1]; [6]): 1.08

N[C@H](CCC(=O)O)C(=O)O [D-glutamate]
activity at 200000 µM (HSV-1 protease [1]; [3]): 290%

O=C(O)C[C@@H](O)C(=O)O [D-malate]
activity at 200000 µM (HSV-1 protease [1]; [3]): 409%

CN(C)C=O [Dimethyl formamide]
effect of co-solvent on HSV-1 protease activity (in words) (HSV-1 protease [1]): strongly inactivating

C[S+](C)[O-] [Dimethyl sulfoxide]
inhibition at 2 % (HSV-1 protease [1]; read-out: reduction of HSV protease activity, 2% DMSO with 0.8M sodium citrate present): 8%
inhibition at 2 % (HSV-1 protease [1]; read-out: reduction of HSV protease activity, 2% DMSO, no kosmotropic anion): 37%

CCO [Ethanol]
effect of co-solvent on HSV-1 protease activity (in words) (HSV-1 protease [1]): strongly inactivating
activity at 2 % (HSV-1 protease [1]; [3]): 27%
activity at 5 % (HSV-1 protease [1]; [3]): 10%
activity at 10 % (HSV-1 protease [1]; [3]): 0%

OCCO [Ethylene glycol]
activity at 2 % (HSV-1 protease [1]; [3]): 63%
activity at 5 % (HSV-1 protease [1]; [3]): 67%
activity at 10 % (HSV-1 protease [1]; [3]): 45%

F [F^-]
effect of anion/salt on HSV-1 protease activity (in words) (HSV-1 protease [1]): some activation
Relative activity of HSV-1 protease (HSV-1 protease [1]; [5]): 6.15

OCC(O)CO [Glycerol]
effect of co-solvent on HSV-1 protease activity (in words) (HSV-1 protease [1]): Activation was observed, albeit to a lesser extent

O=P(O)(O)OP(=O)(O)O [HP2 O7^3-]
Relative activity of HSV-1 protease (HSV-1 protease [1]; [5]): 7.32

O=P(O)(O)O [HPO4^2- /PO4^3-, sodium phosphate]
effect of anion/salt on HSV-1 protease activity (in words) (HSV-1 protease [1]): strong activation
kcat /KM (HSV-1 protease [1]; 0.8M salt present): 2200 M⁻¹ s⁻¹
Relative activity of HSV-1 protease (HSV-1 protease [1]; [5]): 5.68

I [I^-, iodide]
effect of anion/salt on HSV-1 protease activity (in words) (HSV-1 protease [1]): inhibition
Relative activity of HSV-1 protease (HSV-1 protease [1]; [5]): 0.07
Relative activity of HSV-1 protease (HSV-1 protease [1]; [6]): 0.00
effect of anion/salt on HSV-1 protease activity (in words) (HSV-1 protease [1]; listed as iodide): inhibitory

O=C(O)CC(C(=O)O)C(O)C(=O)O (centres unmarked) [Isocitrate]
Relative activity of HSV-1 protease (HSV-1 protease [1]; [4]): 3.53
activity at 200000 µM (HSV-1 protease [1]; [3]): 772%

N[C@@H](CCC(=O)O)C(=O)O [L-glutamate]
activity at 200000 µM (HSV-1 protease [1]; [3]): 245%

O=C(O)C[C@H](O)C(=O)O [L-malate]
activity at 200000 µM (HSV-1 protease [1]; [3]): 404%

O=S(=O)(O)O [SO4^2-, sulfate]
effect of anion/salt on HSV-1 protease activity (in words) (HSV-1 protease [1]): strong activation
Relative activity of HSV-1 protease (HSV-1 protease [1]; [5]): 4.70

OC[C@@H](O)[C@@H](O)[C@H](O)[C@@H](O)CO [Sorbitol]
effect of co-solvent on HSV-1 protease activity (in words) (HSV-1 protease [1]): Activation was observed, albeit to a lesser extent

O=C(O)CCC(=O)O [Succinate]
Relative activity of HSV-1 protease (HSV-1 protease [1]; pH 7.5): 6.03
activity at 200000 µM (HSV-1 protease [1]; [3]): 397%

O=C(O)/C=C(/CC(=O)O)C(=O)O [cis-Aconitrate]
Relative activity of HSV-1 protease (HSV-1 protease [1]; [4]): 2.40
activity at 200000 µM (HSV-1 protease [1]; [3]): 506%

Source: patent US5618685A, “Activation of herpes simplex virus protease by kosmotropes” (priority 1995, dated 1997)
